Measurements published in US8426148B2, “Label-free methods using a resonant waveguide grating biosensor to determine GPCR signaling pathways” (Corning Incorporated, priority 2007, dated 2013).
Read-outs that look alike come from different tables or passages of the source. Blank lines part the entries; values can stand above or below the compound they belong to.

Assays:
[1] = target: adenylate cyclase; experiment: RWG biosensor DMR assay: NECA pretreatment, then forskolin-induced response; type: cell-based, Human; conditions: quiescent A431 cells; NECA pretreatment 1 h, then 1 μM forskolin; read-out: IC50 of NECA pretreatment against the forskolin-induced response
Protocol: (§1) The plate lid was handled automatically by the robotics.
Similarly, pretreatment of A431 cells with various concentrations of NECA for 1 h desensitizes adenylate cyclase and attenuates the forskolin-induced responses (FIG. 3B). […] Although not limited by theory a possible mechanism of cross-talk between these two pathways is that upon activation of adenylate cyclase by forskolin, cAMP is produced and activates PKA. PKA in turn may phosphorylate the Gs receptors, and cause complete inhibition of the Gs-mediated response. Accordingly, FIGS. 3A and 3B, respectively, illustrate: 3A) forskolin pretreatment on the NECA-induced Gs response; and 3B) of the effects NECA pretreatment on forskolin-induced responses in quiescent A431 cells.

[2] = test system: histamine receptor subtype 1; experiment: RWG biosensor DMR assay: U73122 pretreatment, then histamine-induced DMR signal; type: cell-based, Human; conditions: quiescent A431 cells
Text: as §1
Histamine is a natural agonist for endogenously expressed Gq-coupled receptor histamine receptor subtype 1 in A431 cells.

[3] = test system: H1 histamine receptor; experiment: RWG biosensor DMR assay: forskolin pretreatment, then histamine-induced Gq response; type: cell-based, Human; conditions: quiescent A431 cells; forskolin pretreatment 1 h, then 100 nM histamine; read-out: IC50 of forskolin pretreatment, partial inhibition of histamine-induced response
Protocol: (§2) Cell culture—Human epidermoid carcinoma A431 cells (American Type Cell Culture) were grown in Dulbecco's modified Eagle's medium (DMEM) supplemented with 10% fetal bovine serum (FBS), 4.5 g/liter glucose, 2 mM glutamine, and antibiotics. About 1.8×10^4 cells at passage 3 to 8 suspended in 50 μL of the DMEM medium containing 10% FBS were placed in each well of a 384-well microplate, and were cultured at 37° C. under air/5% CO2 for about 1 day, followed by about 20 hr starvation through continuously culturing in the serum-free DMEM.
(§3) Optical biosensor system and cell assays—CORNING® EPIC® wavelength interrogation system was used. […] Once stable temperature is reached (typically within 1 hr), a sensor microplate is transferred by the robotics into the plate holder directly above the detection system, while a source plate is moved to an appropriate compartment so that it is readily addressable by the on-board liquid handling unit. […]
(§4) For kinetic assays, the cells were washed with HBSS (Hanks Balanced Salt Solution with 20 mM HEPES) buffer. After 1 hour incubation within the detection system, the sensor plate was scanned and a baseline response was recorded. Then, compound solutions were transferred into the sensor plate using the on-board liquid handling system, and the cell responses were then recorded for another period of time. […]

[4] = test system: adenylate cyclase; conditions: read-out: IC50 of histamine pretreatment against the forskolin response, quiescent A431 cells, then 1 μM forskolin, slight inhibition
Protocol: as §2, §3, §4

SMILES: CCNC(=O)[C@H]1O[C@@H](n2cnc3c(N)ncnc32)[C@H](O)[C@@H]1O [NECA, N-ethyladenosine-5′-uronic acid]
IC50 [1]: 1.3 nM

SMILES: COc1ccc2c(c1)CC[C@@H]1[C@@H]2CC[C@]2(C)[C@@H](NCCCCCCN3C(=O)C=CC3=O)CC[C@@H]12 [U73122, 1-[6-[[17β-3-methoxyestra-1,3,5(10)-trien-17-yl]amino]hexyl]-1H-pyrrole-2,5-dione]
effect of U73122 pretreatment on histamine-induced DMR response ([2]; U73122 0-228 μM, then 1,000 nM histamine): dose-dependent inhibition of the histamine-induced DMR response
effect of U73122 at high doses on histamine response (P-DMR amplitude) ([2]; high doses of U73122, 1,000 nM histamine): completely inhibit the histamine response

IC50 [3]: ~184 nM
SMILES: C=C[C@@]1(C)CC(=O)[C@]2(O)[C@@]3(C)[C@@H](O)CCC(C)(C)[C@@H]3[C@H](O)[C@H](OC(C)=O)[C@@]2(C)O1 [forskolin, Forskolin]

SMILES: NCCc1c[nH]cn1 [histamine, Histamine]
IC50 [4]: 301 nM
